Test results published in patent publication US20180273528A1 (LES LABORATOIRES SERVIER, priority 2015, published 2018).

Tests used:
DYRK1B = molecular target: T1, DYRK1B (Homo sapiens, UniProt Q9Y463); test: Kinase TR-FRET assay, DYRK1B; type: biochemical; details: full-length human kinase, 10 μM ATP
T1 construct: full-length human kinases from Carna Biosciences; purchased Carna Biosciences 04-131
How it was run: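 Compounds tested at 0.1 nM to 30 μM in reaction buffer; reaction stopped with 10 mM EDTA. Phosphorylated MBP detected with 1 nM Europium-labelled anti-phospho-Thr232 antibody by TR-FRET.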

DYRK1A = DYRK1A (Homo sapiens, UniProt Q13627); test: Cellular DYRK1 autophosphorylation assay in U2-OS cells; type: cell-based; design: full-length, wild-type human DYRK1A (NM_001396) with an HA tag; expressed in transfected cells; host or cells: human U2-OS osteosarcoma cells, transient transfection of a pcDNA3.1 plasmid; details: U2-OS cells transfected with HA-tagged human DYRK1A, 5 hours exposure; read-out: IC50 (μM) P-Ser520-Dyrk1A -Cell assay
How it was run: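 IC50 derived from dose-response curves of phospho-Ser520-DYRK1A (blots normalised to total DYRK1A), quantified by either immunoblotting with chemiluminescence or Mesoscale electrochemiluminescent ELISA. Compounds applied to U2-OS cells across several concentrations for 5 hours.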

T1 sequence (Q9Y463 whole entry): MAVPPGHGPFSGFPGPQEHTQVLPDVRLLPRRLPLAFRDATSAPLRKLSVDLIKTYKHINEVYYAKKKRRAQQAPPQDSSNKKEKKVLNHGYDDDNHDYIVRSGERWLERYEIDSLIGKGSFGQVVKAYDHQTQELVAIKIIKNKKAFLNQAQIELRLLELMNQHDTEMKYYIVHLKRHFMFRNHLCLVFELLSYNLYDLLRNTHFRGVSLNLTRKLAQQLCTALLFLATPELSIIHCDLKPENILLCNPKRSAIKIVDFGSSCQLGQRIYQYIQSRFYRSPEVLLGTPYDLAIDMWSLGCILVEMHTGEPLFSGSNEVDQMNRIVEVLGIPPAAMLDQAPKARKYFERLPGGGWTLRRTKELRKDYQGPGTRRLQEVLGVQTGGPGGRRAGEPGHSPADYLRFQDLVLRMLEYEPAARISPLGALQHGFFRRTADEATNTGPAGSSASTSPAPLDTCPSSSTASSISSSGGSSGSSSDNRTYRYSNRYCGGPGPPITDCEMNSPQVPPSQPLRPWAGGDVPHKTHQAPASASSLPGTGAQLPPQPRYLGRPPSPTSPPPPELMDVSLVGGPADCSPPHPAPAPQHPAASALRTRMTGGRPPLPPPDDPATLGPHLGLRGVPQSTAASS

SMILES | IC50 (DYRK1B) [µM] | IC50 (DYRK1A) [µM]
Cc1nc2ccc(-c3cc(N)nc(N)c3)nc2n1C[C@@H](C)Oc1ccccc1 (single isomer, unassigned) [Example 106] | 0.006 | 0.073
Cc1nc2ccc(-c3cc(N)nc(N)c3)nc2n1Cc1ccoc1 [Example 42, 4-[3-(furan-3-ylmethyl)-2-methyl-3H-imidazo[4,5-b]pyridin-5-yl]pyridine-2,6-diamine] | 0.01 | 0.045
Cc1nc2ccc(-c3cc(N)nc(N)c3)nc2n1C1CC(F)(F)C1 [Example 101, 4-[3-(3,3-difluorocyclobutyl)-2-methyl-3H-imidazo[4,5-b]pyridin-5-yl]pyridine-2,6-diamine] | 0.007 | 0.006
Cc1nc2ccc(-c3cc(N)nc(N)c3)nc2n1C1CC(F)C1 (centres unmarked) [Example 103, 4-[3-(3-fluorocyclobutyl)-2-methyl-3H-imidazo[4,5-b]pyridin-5-yl]pyridine-2,6-diamine] | 0.005 | 0.014

More lines, now with the values ahead:

IC50 (DYRK1B) [µM] | IC50 (DYRK1A) [µM] | SMILES
0.006 | 0.09 | Cc1nc2ccc(-c3cc(N)nc(N)c3)nc2n1C1CC1 [Example 9, 4-(3-cyclopropyl-2-methyl-3H-imidazo[4,5-b]pyridin-5-yl)pyridine-2,6-diamine]
0.006 | 0.047 | Cc1nc2ccc(-c3cc(N)nc(N)c3)nc2n1CCCC(F)(F)F [Example 71, 4-[2-methyl-3-(4,4,4-trifluorobutyl)-3H-imidazo[4,5-b]pyridin-5-yl]pyridine-2,6-diamine]
0.002 | 0.02 | CCn1c(C)nc2ccc(-c3cc(N)nc(N)c3)nc21 [Example 154, 4-(3-ethyl-2-methyl-3H-imidazo[4,5-b]pyridin-5-yl)pyridine-2,6-diamine]
